tested on: Green Peach Aphid (GPA); assay: Insecticidal testing for Green Peach Aphid (GPA), foliar spray on infested cabbage seedlings; type: in vivo; design: key to GPA Control @ 200 ppm: A: 80-100; B: More than 0-Less than 80; C: Not Tested; D: No activity noticed in this bioassay; settings: 200 ppm test compound sprayed on cabbage seedlings infested with GPA; graded after three days; Abbott-corrected % control, qualitative rating
Source text: Insecticidal Testing for Green Peach Aphid (GPA) GPA is the most significant aphid pest of peach trees, causing decreased growth, shriveling of the leaves, and the death of various tissues. It is also hazardous because it acts as a vector for the transport of plant viruses, such as potato virus Y and potato leafroll virus to members of the nightshade/potato family Solanaceae, and various mosaic viruses to many other food crops. GPA attacks such plants as broccoli, burdock, cabbage, carrot, cauliflower, daikon, eggplant, green beans, lettuce, macadamia, papaya, peppers, sweet potatoes, tomatoes, watercress, and zucchini, among other plants. GPA also attacks many ornamental crops such as carnation, chrysanthemum, flowering white cabbage, poinsettia, and roses. GPA has developed resistance to many pesticides. Certain compounds disclosed in this document were tested against GPA using procedures described as follows. Cabbage seedlings grown in 3-inch pots, with 2-3 small (3-5 cm) true leaves, were used as test substrate. The seedlings were infested with 20-50 GPA (wingless adult and nymph stages) one day prior to chemical application. Four pots with individual seedlings were used for each treatment. Test compounds (2 mg) were dissolved in 2 mL of acetone/methanol (1:1) solvent, forming stock solutions of 1000 ppm test compound. The stock solutions were diluted 5× with 0.025% Tween® 20 (Sigma-Aldrich, Inc., St. Louis, Mo.) in H2O to obtain the solution at 200 ppm test compound. A hand-held aspirator-type sprayer was used for spraying a solution to both sides of […] leaves until runoff. Reference plants (solvent check) were sprayed with the diluent only containing 20% by volume of acetone/methanol (1:1) solvent. Treated plants were held in a holding room for three days at approximately 25° C. and ambient relative humidity (RH) prior to grading. Evaluation was conducted by counting the number of live aphids per plant under a microscope. Percent Control was measured by using Abbott's correction formula (W. S. Abbott, “A Method of Computing the Effectiveness of an Insecticide” J. Econ. Entomol. 18 (1925), pp. 265-267) as follows: Corrected % Control=100*(X−Y)/X • where • X=No. of live aphids on solvent check plants and • Y=No. of live aphids on treated plants The results provided in Table 6 below are based on the qualitative ratings set forth in Table 5.

Compound | GPA Control @ 200 ppm
CS(=O)(Cc1ccc(Cl)[n+]([O-])c1)=N[N+](=O)[O-] (stereo not shown) [(20)] | D
CS(=O)(Cc1ccc(C(F)(F)F)[n+]([O-])c1)=NC(N)=O (stereo not shown) [(22)] | D
CC(c1ccc(Cl)[n+]([O-])c1)S(C)(=O)=NC(N)=O (stereo not shown) [(23)] | D

same assay, conditions: Myzus persicae, foliar, 72 h; 200 ppm test compound sprayed on cabbage seedlings infested with GPA; graded after three days; Abbott-corrected % control, qualitative rating

Compound | pest or weed control at 200 ppm [%]
CC(c1ccc(C(F)(F)F)[n+]([O-])c1)/S(C)=N\C#N (stereo not shown) [(5)] | 80 to 100
CS(=O)(Cc1ccc(C(F)(F)F)[n+]([O-])c1)=NC#N (stereo not shown) [(9), [methyl(oxido){[1-oxido-6-(trifluoromethyl)pyridin-3-yl]methyl}-λ^6-sulfanylidene]cyanamide] | 80 to 100
CC(C)(c1ccc(C(F)(F)F)[n+]([O-])c1)S(C)(=O)=NC#N (stereo not shown) [(10)] | 80 to 100
CC(c1ccc(Cl)[n+]([O-])c1)S(C)(=O)=N[N+](=O)[O-] (stereo not shown) [(18)] | 0 to 80
CC(c1ccc(Cl)[n+]([O-])c1)S(C)(=O)=NC#N (stereo not shown) [(19)] | 80 to 100
CC(c1ccc(C(F)(F)F)[n+]([O-])c1)S(C)(=O)=N[N+](=O)[O-] (stereo not shown) [(21)] | 80 to 100
CC(c1ccc(C(F)(F)F)[n+]([O-])c1)S(C)(=O)=NC#N (stereo not drawn) [Compound (6), N-Cyano-S-[1-(6-trifluoromethyl-3-pyridinyl)ethyl]-S-methylsulfoximine N-oxide] | 80 to 100

— patent US20140005234A1, “INSECTICIDAL N-SUBSTITUTED SULFILIMINE AND SULFOXIMINE PYRIDINE N-OXIDES” (Dow AgroSciences LLC, priority 2012, published 2014)
